# Assay results reported in paper PMC5356695, “A phase 1 study of oral ridaforolimus in pediatric patients with advanced solid tumors” (Oncotarget, 2016).
# Like-named read-outs stand apart in the source and are kept apart here.
# Test system: pediatric patients with advanced solid tumors
# Details: for Leukopenia (treatment-related AE): laboratory values only
# Procedure: This phase 1, multicenter, open-label study was conducted at a total of 8 study sites (3 study sites in the United States and 5 Innovative Therapies for Children with Cancer [ITCC] Consortium centers [2 in the United Kingdom and 3 in France]) between January 31, 2012, and the data cutoff, January 14, 2014 (ClinicalTrials.gov identifier NCT01431534; European Clinical Trials Database [EudraCT] number 2011-000729-55). An enteric-coated tablet formulation of ridaforolimus was orally administered for 5 consecutive days and not administered for 2 consecutive days per week in 28-day cycles until progression, unacceptable toxicity, or consent withdrawal. […] Dose escalation was conducted by using a modified toxicity probability intervals method that targeted a 30% DLT rate and started at 22 mg/m^2 (the equivalent of the adult RP2D [27], a 40-mg dose in adults with a BSA of 1.8 m^2). […] Dosing was adjusted based on BSA and rounded to the nearest 10-mg tablet. Patients were to be treated at sequentially rising dose levels until a preliminary MTD was identified.
# Toxicity was graded according to the National Cancer Institute Common Terminology Criteria for Adverse Events, version 4.0 [42]. Safety data were reported for all patients who received at least 1 dose of the study drug. […] Once the RP2D of ridaforolimus was defined, an expansion cohort to be treated at the RP2D was planned to obtain additional safety, tolerability, and pharmacokinetic data.
smiles,measurement,setting,value
CO[C@H]1C[C@@H]2CC[C@@H](C)[C@@](O)(O2)C(=O)C(=O)N2CCCC[C@H]2C(=O)O[C@H]([C@H](C)C[C@@H]2CC[C@@H](OP(C)(C)=O)[C@H](OC)C2)CC(=O)[C@H](C)/C=C(\C)[C@@H](O)[C@@H](OC)C(=O)[C@H](C)C[C@H](C)/C=C/C=C/C=C/1C [ridaforolimus],Patients with serious adverse events related to study treatment,"22 mg/m^2, grade 3 oral herpes",1 patient
same,Stomatitis (treatment-related AE),"22 mg/m^2 n = 4, any grade",2 (50) n (%)
same,Thrombocytopenia (treatment-related AE),"22 mg/m^2 n = 4, any grade",2 (50) n (%)
same,Vomiting (treatment-related AE),"22 mg/m^2 n = 4, any grade",1 (25) n (%)
same,Leukopenia (treatment-related AE),"22 mg/m^2 n = 4, any grade",1 (25) n (%)
same,Anemia (treatment-related AE),"22 mg/m^2 n = 4, grades 3–4",0 n (%)
same,Decreased appetite (treatment-related AE),"22 mg/m^2 n = 4, grades 3–4",0 n (%)
same,Decreased weight (treatment-related AE),"22 mg/m^2 n = 4, grades 3–4",0 n (%)
same,Diarrhea (treatment-related AE),"22 mg/m^2 n = 4, grades 3–4",0 n (%)
same,Dry mouth (treatment-related AE),"22 mg/m^2 n = 4, grades 3–4",0 n (%)
same,Dysgeusia (treatment-related AE),"22 mg/m^2 n = 4, grades 3–4",0 n (%)
same,Epistaxis (treatment-related AE),"22 mg/m^2 n = 4, grades 3–4",0 n (%)
same,Fatigue (treatment-related AE),"22 mg/m^2 n = 4, grades 3–4",0 n (%)
same,Headache (treatment-related AE),"22 mg/m^2 n = 4, grades 3–4",0 n (%)
same,Hypercholesterolemia (treatment-related AE),"22 mg/m^2 n = 4, grades 3–4",0 n (%)
same,Hyperglycemia (treatment-related AE),"22 mg/m^2 n = 4, grades 3–4",0 n (%)
same,Hypertriglyceridemia (treatment-related AE),"22 mg/m^2 n = 4, grades 3–4",0 n (%)
same,Hypocalcemia (treatment-related AE),"22 mg/m^2 n = 4, grades 3–4",0 n (%)
same,Hypokalemia (treatment-related AE),"22 mg/m^2 n = 4, grades 3–4",0 n (%)
same,Hypophosphatemia (treatment-related AE),"22 mg/m^2 n = 4, grades 3–4",1 (25) n (%)
same,Increased ALT (treatment-related AE),"22 mg/m^2 n = 4, grades 3–4",1 (25) n (%)
same,Increased AST (treatment-related AE),"22 mg/m^2 n = 4, grades 3–4",0 n (%)
same,Increased alkaline phosphatase (treatment-related AE),"22 mg/m^2 n = 4, grades 3–4",0 n (%)
same,Increased bilirubin (treatment-related AE),"22 mg/m^2 n = 4, grades 3–4",0 n (%)
same,Increased γ-glutamyltransferase (treatment-related AE),"22 mg/m^2 n = 4, grades 3–4",0 n (%)
same,Lymphopenia (treatment-related AE),"22 mg/m^2 n = 4, grades 3–4",0 n (%)
same,Nausea (treatment-related AE),"22 mg/m^2 n = 4, grades 3–4",0 n (%)
same,Neutropenia (treatment-related AE),"22 mg/m^2 n = 4, grades 3–4",0 n (%)
same,Oral herpes (treatment-related AE),"22 mg/m^2 n = 4, grades 3–4",1 (25) n (%)
same,Patients with ≥1 treatment-related adverse event,"22 mg/m^2 n = 4, grades 3–4",2 (50) n (%)
same,Photophobia (treatment-related AE),"22 mg/m^2 n = 4, grades 3–4",0 n (%)
same,Rash (treatment-related AE),"22 mg/m^2 n = 4, grades 3–4",0 n (%)
same,Stomatitis (treatment-related AE),"22 mg/m^2 n = 4, grades 3–4",0 n (%)
same,Thrombocytopenia (treatment-related AE),"22 mg/m^2 n = 4, grades 3–4",0 n (%)
same,Vomiting (treatment-related AE),"22 mg/m^2 n = 4, grades 3–4",0 n (%)
same,Leukopenia (treatment-related AE),"22 mg/m^2 n = 4, grades 3–4",0 n (%)
same,Stomatitis (treatment-related AE),"28 mg/m^2 n = 3, any grade",3 (100) n (%)
same,Thrombocytopenia (treatment-related AE),"28 mg/m^2 n = 3, any grade",1 (33) n (%)
same,Vomiting (treatment-related AE),"28 mg/m^2 n = 3, any grade",0 n (%)
same,Leukopenia (treatment-related AE),"28 mg/m^2 n = 3, any grade",2 (67) n (%)
same,Anemia (treatment-related AE),"28 mg/m^2 n = 3, grades 3–4",0 n (%)
same,Decreased appetite (treatment-related AE),"28 mg/m^2 n = 3, grades 3–4",0 n (%)
same,Decreased weight (treatment-related AE),"28 mg/m^2 n = 3, grades 3–4",0 n (%)
same,Diarrhea (treatment-related AE),"28 mg/m^2 n = 3, grades 3–4",0 n (%)
same,Dry mouth (treatment-related AE),"28 mg/m^2 n = 3, grades 3–4",0 n (%)
same,Dysgeusia (treatment-related AE),"28 mg/m^2 n = 3, grades 3–4",0 n (%)
same,Epistaxis (treatment-related AE),"28 mg/m^2 n = 3, grades 3–4",0 n (%)
same,Fatigue (treatment-related AE),"28 mg/m^2 n = 3, grades 3–4",0 n (%)
same,Headache (treatment-related AE),"28 mg/m^2 n = 3, grades 3–4",0 n (%)
same,Hypercholesterolemia (treatment-related AE),"28 mg/m^2 n = 3, grades 3–4",1 (33) n (%)
same,Hyperglycemia (treatment-related AE),"28 mg/m^2 n = 3, grades 3–4",0 n (%)
same,Hypertriglyceridemia (treatment-related AE),"28 mg/m^2 n = 3, grades 3–4",0 n (%)
same,Hypocalcemia (treatment-related AE),"28 mg/m^2 n = 3, grades 3–4",0 n (%)
same,Hypokalemia (treatment-related AE),"28 mg/m^2 n = 3, grades 3–4",0 n (%)
same,Hypophosphatemia (treatment-related AE),"28 mg/m^2 n = 3, grades 3–4",0 n (%)
same,Increased ALT (treatment-related AE),"28 mg/m^2 n = 3, grades 3–4",1 (33) n (%)
same,Increased AST (treatment-related AE),"28 mg/m^2 n = 3, grades 3–4",0 n (%)
same,Increased alkaline phosphatase (treatment-related AE),"28 mg/m^2 n = 3, grades 3–4",0 n (%)
same,Increased bilirubin (treatment-related AE),"28 mg/m^2 n = 3, grades 3–4",0 n (%)
same,Increased γ-glutamyltransferase (treatment-related AE),"28 mg/m^2 n = 3, grades 3–4",0 n (%)
same,Lymphopenia (treatment-related AE),"28 mg/m^2 n = 3, grades 3–4",0 n (%)
same,Nausea (treatment-related AE),"28 mg/m^2 n = 3, grades 3–4",0 n (%)
same,Neutropenia (treatment-related AE),"28 mg/m^2 n = 3, grades 3–4",0 n (%)
same,Oral herpes (treatment-related AE),"28 mg/m^2 n = 3, grades 3–4",0 n (%)
same,Patients with ≥1 treatment-related adverse event,"28 mg/m^2 n = 3, grades 3–4",2 (67) n (%)
same,Photophobia (treatment-related AE),"28 mg/m^2 n = 3, grades 3–4",0 n (%)
same,Rash (treatment-related AE),"28 mg/m^2 n = 3, grades 3–4",0 n (%)
same,Stomatitis (treatment-related AE),"28 mg/m^2 n = 3, grades 3–4",0 n (%)
same,Thrombocytopenia (treatment-related AE),"28 mg/m^2 n = 3, grades 3–4",1 (33) n (%)
same,Vomiting (treatment-related AE),"28 mg/m^2 n = 3, grades 3–4",0 n (%)
same,Leukopenia (treatment-related AE),"28 mg/m^2 n = 3, grades 3–4",0 n (%)
same,Patients discontinued due to an adverse event (grade 5 gastric perforation related to underlying disease),"33 mg/m^2 (n = 13), 8%",1 patients
same,Patients with DLT (grade 3 increased ALT),"33 mg/m^2, 18 patients evaluable for DLTs overall",1 patient
same,Patients with serious adverse events related to study treatment,"33 mg/m^2, grade 2 rectal pain, grade 2 seizure",2 patients
same,Stomatitis (treatment-related AE),"33 mg/m^2 n = 13, any grade",10 (77) n (%)
same,Thrombocytopenia (treatment-related AE),"33 mg/m^2 n = 13, any grade",10 (77) n (%)
same,Vomiting (treatment-related AE),"33 mg/m^2 n = 13, any grade",2 (15) n (%)
same,Leukopenia (treatment-related AE),"33 mg/m^2 n = 13, any grade",4 (31) n (%)
same,Anemia (treatment-related AE),"33 mg/m^2 n = 13, grades 3–4",0 n (%)
same,Decreased appetite (treatment-related AE),"33 mg/m^2 n = 13, grades 3–4",0 n (%)
same,Decreased weight (treatment-related AE),"33 mg/m^2 n = 13, grades 3–4",0 n (%)
same,Diarrhea (treatment-related AE),"33 mg/m^2 n = 13, grades 3–4",0 n (%)
same,Dry mouth (treatment-related AE),"33 mg/m^2 n = 13, grades 3–4",0 n (%)
same,Dysgeusia (treatment-related AE),"33 mg/m^2 n = 13, grades 3–4",0 n (%)
same,Epistaxis (treatment-related AE),"33 mg/m^2 n = 13, grades 3–4",0 n (%)
same,Fatigue (treatment-related AE),"33 mg/m^2 n = 13, grades 3–4",0 n (%)
same,Headache (treatment-related AE),"33 mg/m^2 n = 13, grades 3–4",0 n (%)
same,Hypercholesterolemia (treatment-related AE),"33 mg/m^2 n = 13, grades 3–4",0 n (%)
same,Hyperglycemia (treatment-related AE),"33 mg/m^2 n = 13, grades 3–4",0 n (%)
same,Hypertriglyceridemia (treatment-related AE),"33 mg/m^2 n = 13, grades 3–4",1 (8) n (%)
same,Hypocalcemia (treatment-related AE),"33 mg/m^2 n = 13, grades 3–4",0 n (%)
same,Hypokalemia (treatment-related AE),"33 mg/m^2 n = 13, grades 3–4",0 n (%)
same,Hypophosphatemia (treatment-related AE),"33 mg/m^2 n = 13, grades 3–4",0 n (%)
same,Increased ALT (treatment-related AE),"33 mg/m^2 n = 13, grades 3–4",3 (23) n (%)
same,Increased AST (treatment-related AE),"33 mg/m^2 n = 13, grades 3–4",1 (8) n (%)
